# Legend:
# rice flat sedge = experiment: Test Example 3: herbicidal effect by foliage application, Wagner pot (Table 18, symbol E); type: in vivo, rice flat sedge (Cyperus iria)
# In short: (§1)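 Plants were sown in alluvial soil held under 0.1–0.5 cm standing water and grown 14 days in a greenhouse at 25–30 °C. An emulsifiable formulation, water-diluted to the set dose, was then sprayed onto the foliage, and effects were scored three weeks later using previously defined criteria.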
# blackgrass [1] = experiment: Test Example 5: herbicidal effect by foliage application, plastic box (Table 20, symbol J); type: in vivo, blackgrass (Alopecurus myosuroides); details: foliage application, 320 g/ha, evaluated three weeks after application
# In short: (§2)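 Sow seeds spot-wise in sterilized diluvial soil; cover with ~1.5 cm soil. Grow 14 days in greenhouse, 25° C. to 30° C. Spray foliage with emulsion diluted to predetermined amount. Rate effect after 3 weeks.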
# Italian ryegrass [2] = experiment: Test Example 5: herbicidal effect by foliage application, plastic box (Table 20, symbol K); type: in vivo, Italian ryegrass (Lolium multiflorum); details: foliage application, 320 g/ha, evaluated three weeks after application
# In short: as §2
# barnyard grass [3] = experiment: Test Example 3: herbicidal effect by foliage application, Wagner pot (Table 18, symbol H); type: in vivo, barnyard grass (Echinochloa crus-galli)
# In short: as §1
# windgrass [4] = experiment: Test Example 5: herbicidal effect by foliage application, plastic box (Table 20, symbol L); type: in vivo, windgrass (Apera spica-venti); details: foliage application, 320 g/ha, evaluated three weeks after application
# In short: as §2
# false cleavers = experiment: Test Example 5: herbicidal effect by foliage application, plastic box (Table 20, symbol Q); type: in vivo, false cleavers (Galium spurium); details: foliage application, 320 g/ha, evaluated three weeks after application
# In short: as §2
# redroot pigweed [5] = experiment: Test Example 4: herbicidal effect by soil treatment (Table 19, symbol N); type: in vivo, redroot pigweed (Amaranthus retroflexus); details: amount of applied herbicide 320 g/ha
# In short: (§3)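 Applied as a water-diluted emulsion, the compound was sprayed onto soil covering newly sown seeds. Evaluation came three weeks after application, in a greenhouse held at 25° C. to 30° C.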
# barnyard grass [6] = experiment: Test Example 5: herbicidal effect by foliage application, plastic box (Table 20, symbol H); type: in vivo, barnyard grass (Echinochloa crus-galli); details: foliage application, 320 g/ha, evaluated three weeks after application
# In short: as §2
# green foxtail [7] = experiment: Test Example 5: herbicidal effect by foliage application, plastic box (Table 20, symbol G); type: in vivo, green foxtail (Setaria viridis); details: foliage application, 320 g/ha, evaluated three weeks after application
# In short: as §2
# redroot pigweed [8] = experiment: Test Example 5: herbicidal effect by foliage application, plastic box (Table 20, symbol N); type: in vivo, redroot pigweed (Amaranthus retroflexus); details: foliage application, 320 g/ha, evaluated three weeks after application
# In short: as §2
# blackgrass [9] = experiment: Test Example 4: herbicidal effect by soil treatment (Table 19, symbol J); type: in vivo, blackgrass (Alopecurus myosuroides); details: amount of applied herbicide 320 g/ha
# In short: as §3
# wild oat [10] = experiment: Test Example 5: herbicidal effect by foliage application, plastic box (Table 20, symbol I); type: in vivo, wild oat (Avena fatua); details: foliage application, 320 g/ha, evaluated three weeks after application
# In short: as §2
# southern crabgrass [11] = experiment: Test Example 5: herbicidal effect by foliage application, plastic box (Table 20, symbol F); type: in vivo, southern crabgrass (Digitaria ciliaris); details: foliage application, 320 g/ha, evaluated three weeks after application
# In short: as §2
# green foxtail [12] = experiment: Test Example 4: herbicidal effect by soil treatment (Table 19, symbol G); type: in vivo, green foxtail (Setaria viridis); details: amount of applied herbicide 320 g/ha
# In short: as §3
# velvetleaf [13] = experiment: Test Example 5: herbicidal effect by foliage application, plastic box (Table 20, symbol M); type: in vivo, velvetleaf (Abutilon theophrasti); details: foliage application, 320 g/ha, evaluated three weeks after application
# In short: as §2
# barnyard grass [14] = experiment: Test Example 4: herbicidal effect by soil treatment (Table 19, symbol H); type: in vivo, barnyard grass (Echinochloa crus-galli); details: amount of applied herbicide 320 g/ha
# In short: as §3
# wild oat [15] = experiment: Test Example 4: herbicidal effect by soil treatment (Table 19, symbol I); type: in vivo, wild oat (Avena fatua); details: amount of applied herbicide 320 g/ha
# In short: as §3
# chickweed [16] = experiment: Test Example 4: herbicidal effect by soil treatment (Table 19, symbol P); type: in vivo, common chickweed (Stellaria media); details: amount of applied herbicide 320 g/ha
# In short: as §3
# persian speedwell [17] = experiment: Test Example 4: herbicidal effect by soil treatment (Table 19, symbol R); type: in vivo, Persian speedwell (Veronica persica); details: amount of applied herbicide 320 g/ha
# In short: as §3
# windgrass [18] = experiment: Test Example 4: herbicidal effect by soil treatment (Table 19, symbol L); type: in vivo, windgrass (Apera spica-venti); details: amount of applied herbicide 320 g/ha
# In short: as §3
# persian speedwell [19] = experiment: Test Example 5: herbicidal effect by foliage application, plastic box (Table 20, symbol R); type: in vivo, Persian speedwell (Veronica persica); details: foliage application, 320 g/ha, evaluated three weeks after application
# In short: as §2
# lambsquarters [20] = experiment: Test Example 4: herbicidal effect by soil treatment (Table 19, symbol O); type: in vivo, lambsquarters (Chenopodium album); details: amount of applied herbicide 320 g/ha
# In short: as §3
# Italian ryegrass [21] = experiment: Test Example 4: herbicidal effect by soil treatment (Table 19, symbol K); type: in vivo, Italian ryegrass (Lolium multiflorum); details: amount of applied herbicide 320 g/ha
# In short: as §3
# Chinese sprangletop = experiment: Test Example 3: herbicidal effect by foliage application, Wagner pot (Table 18, symbol D); type: in vivo, chinese sprangletop (Leptochloa chinensis)
# In short: as §1
# lambsquarters [22] = experiment: Test Example 5: herbicidal effect by foliage application, plastic box (Table 20, symbol O); type: in vivo, lambsquarters (Chenopodium album); details: foliage application, 320 g/ha, evaluated three weeks after application
# In short: as §2
# southern crabgrass [23] = experiment: Test Example 4: herbicidal effect by soil treatment (Table 19, symbol F); type: in vivo, southern crabgrass (Digitaria ciliaris); details: amount of applied herbicide 320 g/ha
# In short: as §3
# velvetleaf [24] = experiment: Test Example 4: herbicidal effect by soil treatment (Table 19, symbol M); type: in vivo, velvetleaf (Abutilon theophrasti); details: amount of applied herbicide 320 g/ha
# In short: as §3
# chickweed [25] = experiment: Test Example 5: herbicidal effect by foliage application, plastic box (Table 20, symbol P); type: in vivo, common chickweed (Stellaria media); details: foliage application, 320 g/ha, evaluated three weeks after application
# In short: as §2
# [26] = amount of applied herbicide 320 g/ha
SMILES,herbicidal effect on J: blackgrass (blackgrass [1]),herbicidal effect on K: Italian ryegrass (Italian ryegrass [2]),herbicidal effect on L: windgrass (windgrass [4]),herbicidal effect on Q: false cleavers (false cleavers),"N: redroot pigweed, herbicidal effect rating (redroot pigweed [5])",herbicidal effect on H: barnyard grass (barnyard grass [6]),herbicidal effect on G: green foxtail (green foxtail [7]),herbicidal effect on N: redroot pigweed (redroot pigweed [8]),"J: blackgrass, herbicidal effect rating (blackgrass [9])",herbicidal effect on I: wild oat (wild oat [10]),herbicidal effect on F: southern crabgrass (southern crabgrass [11]),"G: green foxtail, herbicidal effect rating (green foxtail [12])",herbicidal effect on M: velvetleaf (velvetleaf [13]),"H: barnyard grass, herbicidal effect rating (barnyard grass [14])","I: wild oat, herbicidal effect rating (wild oat [15])","P: chickweed, herbicidal effect rating (chickweed [16])","R: persian speedwell, herbicidal effect rating (persian speedwell [17])","L: windgrass, herbicidal effect rating (windgrass [18])",herbicidal effect on R: persian speedwell (persian speedwell [19]),"O: lambsquarters, herbicidal effect rating (lambsquarters [20])",other results
COc1ccc(-c2sc3ccc(Cl)cc3c2-c2c(O)c(C)nn(C)c2=O)cc1 [2-103],1 (Herbicidal rate of 5% or more and less than 20%),0 (Herbicidal rate of 5% or less (almost no effect)),5 (Herbicidal rate of 90% or more (almost completely withered)),3 (Herbicidal rate of 40% or more and less than 70%),4 (Herbicidal rate of 70% or more and less than 90%),0 (Herbicidal rate of 5% or less (almost no effect)),0 (Herbicidal rate of 5% or less (almost no effect)),3 (Herbicidal rate of 40% or more and less than 70%),0 (Herbicidal rate of 5% or less (almost no effect)),0 (Herbicidal rate of 5% or less (almost no effect)),0 (Herbicidal rate of 5% or less (almost no effect)),0 (Herbicidal rate of 5% or less (almost no effect)),4 (Herbicidal rate of 70% or more and less than 90%),0 (Herbicidal rate of 5% or less (almost no effect)),0 (Herbicidal rate of 5% or less (almost no effect)),4 (Herbicidal rate of 70% or more and less than 90%),5 (Herbicidal rate of 90% or more (almost completely withered)),0 (Herbicidal rate of 5% or less (almost no effect)),5 (Herbicidal rate of 90% or more (almost completely withered)),4 (Herbicidal rate of 70% or more and less than 90%),"herbicidal effect on E (rice flat sedge), rating 0-5 (rice flat sedge; 320 g/ha): 5 (Herbicidal rate of 90% or more (almost completely withered)); herbicidal effect on H (barnyard grass), rating 0-5 (barnyard grass [3]; 320 g/ha): 3 (Herbicidal rate of 40% or more and less than 70%); K: Italian ryegrass, herbicidal effect rating (Italian ryegrass [21]): 0 (Herbicidal rate of 5% or less (almost no effect)); herbicidal effect on D (Chinese sprangletop), rating 0-5 (Chinese sprangletop; 320 g/ha): 2 (Herbicidal rate of 20% or more and less than 40%); herbicidal effect on O: lambsquarters (lambsquarters [22]): 4 (Herbicidal rate of 70% or more and less than 90%); F: southern crabgrass, herbicidal effect rating (southern crabgrass [23]): 0 (Herbicidal rate of 5% or less (almost no effect)); M: velvetleaf, herbicidal effect rating (velvetleaf [24]): 3 (Herbicidal rate of 40% or more and less than 70%); herbicidal effect on P: chickweed (chickweed [25]): 5 (Herbicidal rate of 90% or more (almost completely withered))"
COc1ccc(-c2sc3ccc(Cl)cc3c2-c2c(O)c(C)nn(C)c2=O)cc1OC [2-123],4 (Herbicidal rate of 70% or more and less than 90%),2 (Herbicidal rate of 20% or more and less than 40%),1 (Herbicidal rate of 5% or more and less than 20%),1 (Herbicidal rate of 5% or more and less than 20%),0 (Herbicidal rate of 5% or less (almost no effect)),0 (Herbicidal rate of 5% or less (almost no effect)),0 (Herbicidal rate of 5% or less (almost no effect)),0 (Herbicidal rate of 5% or less (almost no effect)),0 (Herbicidal rate of 5% or less (almost no effect)),0 (Herbicidal rate of 5% or less (almost no effect)),0 (Herbicidal rate of 5% or less (almost no effect)),0 (Herbicidal rate of 5% or less (almost no effect)),3 (Herbicidal rate of 40% or more and less than 70%),0 (Herbicidal rate of 5% or less (almost no effect)),0 (Herbicidal rate of 5% or less (almost no effect)),3 (Herbicidal rate of 40% or more and less than 70%),4 (Herbicidal rate of 70% or more and less than 90%),0 (Herbicidal rate of 5% or less (almost no effect)),5 (Herbicidal rate of 90% or more (almost completely withered)),4 (Herbicidal rate of 70% or more and less than 90%),"herbicidal effect on E: rice flat sedge (rice flat sedge; [26]): 5 (Herbicidal rate of 90% or more (almost completely withered)); herbicidal effect on H: barnyard grass (barnyard grass [3]; [26]): 3 (Herbicidal rate of 40% or more and less than 70%); K: Italian ryegrass, herbicidal effect rating (Italian ryegrass [21]): 0 (Herbicidal rate of 5% or less (almost no effect)); herbicidal effect on D: Chinese sprangletop (Chinese sprangletop; [26]): 0 (Herbicidal rate of 5% or less (almost no effect)); herbicidal effect on O: lambsquarters (lambsquarters [22]): 2 (Herbicidal rate of 20% or more and less than 40%); F: southern crabgrass, herbicidal effect rating (southern crabgrass [23]): 0 (Herbicidal rate of 5% or less (almost no effect)); M: velvetleaf, herbicidal effect rating (velvetleaf [24]): 0 (Herbicidal rate of 5% or less (almost no effect)); herbicidal effect on P: chickweed (chickweed [25]): 5 (Herbicidal rate of 90% or more (almost completely withered))"
